Results from PMC9115112, “A2B adenosine receptor antagonists rescue lymphocyte activity in adenosine-producing patient-derived cancer models” (Journal for Immunotherapy of Cancer, 2022).

Tests used:
Format in all cases: cell-based, human
[1] = test system: healthy donor T cells (PBMCs) and NK cells; assay: CFSE proliferation assay with exogenous adenosine; details: exogenous adenosine 0.1 mM, antagonist 12 µM; for Rescue of lymphocyte (T and NK cell) proliferation: 3 days (T) and 6 days (NK); for Rescue of NK cell proliferation: 6 days
Method: Freshly isolated PBMCs and NK cells were stained with 5 µM FITC-conjugated carboxyfluorescein succinimidyl ester (CFSE, BioLegend) in phosphate-buffered saline (PBS) (Life Technologies) at room temperature for 5 min. CSFE stained cells were washed with flow cytometer buffer three times. CSFE-labeled healthy PBMCs and NK cells were cultured in 96-well plates with X-VIVO20% and 1% PS for 3 and 6 days, respectively. Healthy PBMCs were incubated with Human T-activator CD3/CD28 beads at 1:4 ratio (Thermo Fisher Scientific) and IL-2 (Novartis) at 100 IU/mL. Healthy donor NK cells were incubated with 1000 IU/mL IL-2 only. 2×10^5 PBMCs and 5×10^4 NK cells were counted for treatment with ADO (Sigma-Aldrich) and 12 μM of A2BAR antagonist at the same day.
Figure 3 Rescue of lymphocyte proliferation by of A2BAR antagonism. Relative proliferation of: (A) CD45RA- CD4 T cells, (B) CD45RA+ CD4 T cells, (C) CD45RA- CD8 T cells, (D) CD45RA+ CD8 T cells, and (E) NK cells, after incubation with exogenous adenosine 0.1 mM and A2BAR antagonist 12 µM for 3 (A–D) and 6 (E) days. (n=10 healthy donors) CD45RA expression differentiates naïve and effector T cells from central and effector memory T cells. Box plots with minimum, first quartile, median, third quartile, and maximum are presented. Unpaired and non-parametric statistical analysis—Mann-Whitney test was performed against untreated control with *p<0.05, **p<0.01, ***p<0.001, and ****p<0.0001. (F–J) Representative CFSE histogram on the corresponding lymphocyte subset. CFSE, carboxyfluorescein succinimidyl ester.

[2] = test system: breast cancer patient-derived spheroid cultures; assay: Cell viability assay (Cell-Titer Glo) on breast cancer patient-derived spheroid cultures; details: 4 days exposure
Method: From breast cancer single cell suspension, 3×10^3 cells were seeded and cultured in an ultra-low attachment 384-well plate (Corning) with DMEM-F12 media (Thermo Fisher Scientific) containing 20% FBS and 1% PS. Treatment with A2BAR antagonist at various concentrations are stated in the Results section. After 4 days, Cell-Titer Glo reagent (Promega) was used to measure cell viability in accordance to the manufacturer’s instruction. EnSpire Multilabel Reader (PerkinElmer) was used to read the luminescence.
(§1) Figure 2 Antitumor effect of A2BAR antagonists on breast cancer patient-derived spheroid cultures. (A) Relative cell viability to untreated antagonist control spheroid cultures (n=3, mean±SD) measured by Cell-Titer Glo assay. (B) Representative real time imaging of spheroid cultures over 6 days under 4X objective, with untreated (first column) or added 12 µM concentration respective of A2BAR antagonists indicated. Red mask demarcates area with cells surrounding the spheroid. Green line indicates estimated diameter of spheroid body. (C) Relative area of the representative spheroid growth (as shown in B) normalized to day 1. Statistical analysis—2-way (A) and 1-way (C) ANOVA with Dunnett’s multiple comparisons to untreated antagonist control was performed with *p<0.05, **p<0.01, ***p<0.001, and ****p<0.0001.

[3] = test system: CD4 and CD8 T cells (healthy donor PBMCs); assay: IFNy and perforin cytokine production assay, with CD69 expression (flow cytometry); details: antagonist 12 µM; for IFNy production in CD8 T cells: n=6 healthy donors
Method: Similar experimental setup was performed as the extracellular ADO uptake assay. Cells were harvested after 2 days of CD3/CD28 bead stimulation before treatment with PMA/ionomycin (Sigma Aldrich) and golgi-inhibitors (BD biosciences). After 3 hours of subsequent incubation, intracellular staining was performed for IFNy and perforin (online supplemental table 1).
Figure 4 Rescue of lymphocyte proinflammatory cytokine production IFNy and perforin by A2BAR antagonism. (A,B) Inhibition of extracellular adenosine uptake via phosphorylated-AMP activated protein kinase (pAMPK) staining (n=7 healthy donors). Production of proinflammatory cytokines—(C,D) IFNy and (E) perforin in CD4 (n=5 healthy donors) and CD8 (n=6 healthy donors) T cells. Expression of CD69 adhesion molecule in (F). CD4 (n=7 healthy donors) and (G) CD8 (n=4 healthy donors) T cells. A2BAR antagonist 12 µM was added. Outlier is presented as diamond shape and defined by Tukey’s rule, which is not included in statistical analysis. Box plots with minimum, first quartile, median, third quartile, and maximum are presented. Normalized fold change is based on percent values compared with untreated controls. Unpaired and non-parametric statistical analysis—Mann-Whitney test was performed against untreated control with *p<0.05, **p<0.01, ***p<0.001, and ****p<0.0001.

[4] = test system: breast cancer patient-derived spheroid cultures; assay: Real-time imaging (IncuCyte) of breast cancer patient-derived spheroid growth; details: middle antagonist concentration (12 µM in figure 2), 6 days real-time imaging
Method: Brightfield and phase contrast images under 4X objective were acquired every 6 hours on IncuCyte S3 system (Essen BioScience). For breast cancer patient-derived spheroid culture, 1×10^4 cells per well were seeded with A2BAR antagonist at 12 µM treatment for 6 days real time imaging. For spheroid infiltration, after the addition of CSFE-labeled autologous expanded TILs and treatment with A2BAR antagonist at 12 µM, green fluorescence images were acquired for 3 days. All spheroid invasion analysis was performed using top hat segmentation with IncuCyte software.
as §1

Structure (SMILES) | Rescue of lymphocyte (T and NK cell) proliferation [1] | Rescue of proliferation of CD45RA+ (naïve and effector) CD8 T cells ([1]; 3 days, n=10 healthy donors) | Rescue of proliferation of CD45RA+ CD4 T cells ([1]; 3 days, n=10 healthy donors) | Rescue of proliferation of CD45RA- CD4 T cells (central and effector memory) ([1]; 3 days, n=10 healthy donors) | Rescue of NK cell proliferation ([1]; n=10 healthy donors) | Relative cell viability of breast cancer spheroids vs untreated control ([2]; n=3) | IFNy production in CD4 T cells ([3]; exogenous adenosine, n=5 healthy donors) | IFNy production in CD8 T cells ([3]; exogenous adenosine) | Spheroid growth over time (relative area) vs untreated control [4] | Relative cell viability of breast cancer spheroids vs untreated control ([2]; n=3, listed as ISAM–M89A) | CD69 expression in CD8 T cells ([3]; n=4 healthy donors) | CD69 expression in CD4 T cells ([3]; n=7 healthy donors) | Rescue of proliferation of T cell subsets ([1]; 3 days, n=10 healthy donors) | IFNy production by T cells on adenosine suppression (subset not given) ([3]; exogenous adenosine) | Perforin production by CD8 T cells on adenosine suppression ([3]; exogenous adenosine) | Perforin production by CD8 T cells on adenosine suppression ([3]; exogenous adenosine, listed as ISAM–R56A)
CC1=C(C(=O)OC(C)C)C(c2ccco2)n2c(nc3ccccc32)N1 (centres unmarked) [ISAM-140, isopropyl 4-(furan-2-yl)−2-methyl-1,4-dihydrobenzo[4 5] imidazo[1,2 a]pyrimidine-3-carboxylate] | improved immune cell proliferation | rescued the proliferation | rescued the proliferation | rescued the proliferation | rescued the proliferation | significantly reduced | upregulated IFNy production | upregulated IFNy production | significantly affected the spheroid growth over time | – | – | – | – | – | – | –
CC1=C(C(=O)OC(C)C)C(c2ccoc2)n2c(nc3cc(Cl)ccc32)N1 (centres unmarked) [ISAM-M89A] | did not restore the proliferation | – | – | – | – | more pronounced effect | – | – | significantly affected the spheroid growth over time | significantly reduced | positive effect | positive effect | – | – | – | –
CC1=C(C(=O)OC(C)C)C(c2ccco2)n2c(nc3ccccc32)N1Cc1ccccc1F (centres unmarked) [ISAM-R56A] | – | – | – | – | significantly rescued | significantly reduced | – | significantly rescued | significantly affected the spheroid growth over time | – | – | – | did not restore the proliferation | significantly improved | significantly improved | significantly rescued
